The target in assay [1] is T1, alanine racemase (EcAlr) (Escherichia coli, UniProt P0A6B4).
T1 construct: gene alr; recombinant EcAlr
Put plainly: time-dependent inactivation kinetics, partition ratio, dialysis, intact ESI-MS. The format is biochemical.

For assay [2], the target named is T2, alanine racemase (BsAlr) (Bacillus subtilis, UniProt P10725).
T2 construct: gene alr1; recombinant BsAlr
T2 sequence (P10725 1-389): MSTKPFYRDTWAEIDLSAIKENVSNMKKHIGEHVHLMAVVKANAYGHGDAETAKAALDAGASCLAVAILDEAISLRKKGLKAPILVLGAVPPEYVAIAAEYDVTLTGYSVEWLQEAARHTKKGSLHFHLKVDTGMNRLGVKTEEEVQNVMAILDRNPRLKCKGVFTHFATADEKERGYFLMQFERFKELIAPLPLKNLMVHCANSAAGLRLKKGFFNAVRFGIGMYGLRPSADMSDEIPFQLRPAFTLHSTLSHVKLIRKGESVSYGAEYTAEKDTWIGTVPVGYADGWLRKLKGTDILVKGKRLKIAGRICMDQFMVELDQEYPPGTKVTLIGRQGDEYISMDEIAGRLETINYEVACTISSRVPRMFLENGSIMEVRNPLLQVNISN
In words: time-dependent inactivation kinetics (kinact/Ki […] ^−[…] s^−[…]), partition ratio, dialysis. The format is biochemical.

In assay [3] the target is T3, glutamate racemase (BsMurI) (Bacillus subtilis, UniProt P94556).
T3 construct: gene racE; recombinant BsMurI
Put plainly: time-dependent inactivation kinetics (kinact/Ki), dialysis, intact ESI-MS (+[…]), tryptic LC-MS/MS. The class given is biochemical. The conditions noted are these: read-out: time-dependent inactivation kinetics (kinact/Ki), dialysis, intact ESI-MS (+87).

The target of assay [4] is T4, alanine racemase (MtAlr) (Mycobacterium tuberculosis, UniProt P9WQA9).
T4 construct: gene alr
In words: time-dependent inactivation kinetics (poor inactivator, kinact/Ki […] ^−[…] s^−[…]), partition ratio […] dialysis, intact ESI-MS. The format is biochemical.

The target of assay [5] is T3, glutamate racemase (BsMurI). In words: intact ESI-MS covalent adduct and tryptic LC-MS/MS. The format is binding.
Assay [6] addresses T2, alanine racemase (BsAlr). In words: partition ratio of inactivation, purified enzyme. The format is biochemical.
The target in assay [7] is T1, alanine racemase (EcAlr). Put plainly: partition ratio of inactivation, purified enzyme. The class given is biochemical.
For assay [8], the target named is T4, alanine racemase (MtAlr). Put plainly: partition ratio of inactivation, purified enzyme. The format is biochemical.

Each structure is given as a SMILES string.

T1 sequence (P0A6B4 whole entry): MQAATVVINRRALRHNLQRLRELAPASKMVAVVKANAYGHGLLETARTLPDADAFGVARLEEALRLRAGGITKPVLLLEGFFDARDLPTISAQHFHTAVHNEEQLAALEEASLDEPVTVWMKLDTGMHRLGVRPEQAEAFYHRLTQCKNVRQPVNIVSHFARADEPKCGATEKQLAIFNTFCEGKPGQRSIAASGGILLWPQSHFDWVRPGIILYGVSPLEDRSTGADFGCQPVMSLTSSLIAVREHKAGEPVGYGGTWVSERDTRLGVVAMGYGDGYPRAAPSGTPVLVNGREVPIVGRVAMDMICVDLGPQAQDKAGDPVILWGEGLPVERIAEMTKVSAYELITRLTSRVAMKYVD
T3 sequence (P94556 whole entry): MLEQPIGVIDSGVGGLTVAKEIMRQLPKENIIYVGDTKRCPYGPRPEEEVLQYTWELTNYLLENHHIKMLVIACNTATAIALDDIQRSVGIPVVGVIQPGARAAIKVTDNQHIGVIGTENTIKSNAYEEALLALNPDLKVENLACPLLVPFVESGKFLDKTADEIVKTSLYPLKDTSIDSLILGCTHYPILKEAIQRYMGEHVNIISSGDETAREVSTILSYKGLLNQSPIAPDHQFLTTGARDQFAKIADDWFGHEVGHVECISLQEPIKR
T4 sequence (P9WQA9 whole entry): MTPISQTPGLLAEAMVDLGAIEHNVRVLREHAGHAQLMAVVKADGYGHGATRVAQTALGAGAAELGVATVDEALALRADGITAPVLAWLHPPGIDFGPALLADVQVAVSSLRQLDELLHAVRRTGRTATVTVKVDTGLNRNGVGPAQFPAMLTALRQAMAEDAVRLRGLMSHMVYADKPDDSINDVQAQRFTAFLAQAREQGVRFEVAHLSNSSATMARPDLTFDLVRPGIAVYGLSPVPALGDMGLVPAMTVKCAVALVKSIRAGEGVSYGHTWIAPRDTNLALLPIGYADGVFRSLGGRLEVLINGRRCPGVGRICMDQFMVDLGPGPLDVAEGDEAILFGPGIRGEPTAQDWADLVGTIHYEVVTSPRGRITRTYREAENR

With `N[C@H](CCl)C(=O)O` [BCDA, β-chloro-D-alanine], the KI (inactivation) in assay [1], in assay [2] and in assay [4] was 130 to 230 µM each time. Also, the kinact/KI in assay [3] amounted to 2.7 M⁻¹ s⁻¹.

As to `N[C@@H](CCl)C(=O)O` [BCLA, β-chloro-L-alanine], in assay [5], the “intact ESI-MS covalent adduct and tryptic LC-MS/MS” value is “BCLA modified BsMurI predominantly at C74, the cysteine residue responsible for deprotonation of an incoming D-Glu substrate”.

As to `CC(=O)OC[C@@H](N)C(=O)O` [OADS, O-acetyl–D-serine], the “partition ratio of inactivation, purified enzyme” value is “partition ratios were compared for the structurally and mechanistically similar Alr inhibitor O-acetyl–D-serine (OADS)” in assay [6]; “partition ratios were compared for the structurally and mechanistically similar Alr inhibitor O-acetyl–D-serine (OADS)” in assay [7]; “partition ratios were compared for the structurally and mechanistically similar Alr inhibitor O-acetyl–D-serine (OADS)” in assay [8].

These data come from paper PMC5038272, “Glutamate Racemase Is the Primary Target of β-Chloro-D-Alanine in Mycobacterium tuberculosis” (Antimicrobial Agents and Chemotherapy, 2016).
